Legend:
P-glycoprotein = P-glycoprotein (Homo sapiens, UniProt P08183); assay type: binding; conditions: for inhibition at 20 μM / inhibition at 10 μM: human, pH 7.5
human P-gp = human P-gp (Homo sapiens, UniProt P08183); experiment: Calcein-AM efflux; assay type: cell-based
P-gp = conditions: cited from earlier work
[1] = ongoing Phase III clinical trials; cited from earlier work

Sequence of P-glycoprotein (P08183 whole entry): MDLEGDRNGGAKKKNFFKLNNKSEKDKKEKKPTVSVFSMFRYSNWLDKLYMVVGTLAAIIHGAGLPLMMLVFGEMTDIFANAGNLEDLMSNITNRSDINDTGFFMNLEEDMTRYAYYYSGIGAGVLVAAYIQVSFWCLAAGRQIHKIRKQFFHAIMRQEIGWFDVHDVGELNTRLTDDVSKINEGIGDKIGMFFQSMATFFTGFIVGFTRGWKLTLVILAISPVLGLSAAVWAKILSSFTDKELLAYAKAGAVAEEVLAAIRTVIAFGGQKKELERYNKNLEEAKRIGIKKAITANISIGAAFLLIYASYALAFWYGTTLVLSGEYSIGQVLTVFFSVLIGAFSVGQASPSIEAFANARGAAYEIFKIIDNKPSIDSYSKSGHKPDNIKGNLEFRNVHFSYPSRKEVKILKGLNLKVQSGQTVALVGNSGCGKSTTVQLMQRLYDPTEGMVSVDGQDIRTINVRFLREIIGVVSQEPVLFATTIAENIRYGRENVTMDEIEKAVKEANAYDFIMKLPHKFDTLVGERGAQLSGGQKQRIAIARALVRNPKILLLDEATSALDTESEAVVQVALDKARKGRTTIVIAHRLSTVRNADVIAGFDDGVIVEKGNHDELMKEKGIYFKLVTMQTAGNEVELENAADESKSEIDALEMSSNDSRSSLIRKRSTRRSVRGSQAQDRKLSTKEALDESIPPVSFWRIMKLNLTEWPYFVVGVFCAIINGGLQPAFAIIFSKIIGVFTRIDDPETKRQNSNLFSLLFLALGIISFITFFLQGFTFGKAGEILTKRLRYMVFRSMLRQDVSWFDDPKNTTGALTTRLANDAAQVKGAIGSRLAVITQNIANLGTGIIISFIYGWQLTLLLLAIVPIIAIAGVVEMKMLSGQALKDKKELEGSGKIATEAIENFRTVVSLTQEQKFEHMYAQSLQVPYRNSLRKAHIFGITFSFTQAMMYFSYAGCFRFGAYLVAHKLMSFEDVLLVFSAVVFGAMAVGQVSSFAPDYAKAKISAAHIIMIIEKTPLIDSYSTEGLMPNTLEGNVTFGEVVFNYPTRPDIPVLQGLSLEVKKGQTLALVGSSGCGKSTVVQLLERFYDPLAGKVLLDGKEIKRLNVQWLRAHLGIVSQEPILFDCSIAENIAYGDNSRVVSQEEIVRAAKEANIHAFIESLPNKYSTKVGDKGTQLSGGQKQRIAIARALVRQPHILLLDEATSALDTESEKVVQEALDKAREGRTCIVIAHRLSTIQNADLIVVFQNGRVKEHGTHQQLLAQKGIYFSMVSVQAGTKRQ
Sequence of human P-gp (P08183 whole entry): as above

SMILES	inhibition at 20 μM (P-glycoprotein) [%]	inhibition at 10 μM (P-glycoprotein) [%]	further results
CCOC(=O)c1csc([C@@H](NC(=O)OC(C)(C)C)C(C)C)n1 [Compound 5, (S)-2-(1-tert-Butoxycarbonylamino-2-methylpropyl)thiazole-4-carboxylic acid ethyl ester]	20	–	–
CC(C)[C@H](NC(=O)OC(C)(C)C)c1nc(C(=O)O)cs1 [Compound 6, (S)-2-(1-tert-Butoxycarbonylamino-2-methylpropyl)thiazole-4-carboxylic acid]	< 10	–	–
CCOC(=O)c1csc([C@@H](N)C(C)C)n1 [Compound 7, (S)-2-(1-Amino-2-methylpropyl)thiazole-4-carboxylic acid ethyl ester]	< 10	–	–
CC(C)[C@H](N)c1nc(C(=O)O)cs1 [Compound 8, (S)-2-(1-Amino-2-methylpropyl)thiazole-4-carboxylic acid]	< 10	–	–
CCOC(=O)c1csc([C@@H](NC(=O)c2csc([C@@H](NC(=O)OC(C)(C)C)C(C)C)n2)C(C)C)n1 [Compound 9, (S)-2-(1-{[2-(1-tert-Butoxycarbonylamino-2-methylpropyl)thiazole-4-carbonyl]amino}-(S)-2-methylpropyl)thiazole-4-carboxylic acid ethyl ester]	87	–	IC50 (human P-gp): 20 µM
CC(C)[C@H](NC(=O)OC(C)(C)C)c1nc(C(=O)N[C@H](c2nc(C(=O)O)cs2)C(C)C)cs1 [Compound 10, (S)-2-(1-{[2-(1-tert-Butoxycarbonylamino-2-methylpropyl)thiazole-4-carbonyl]amino}-(S)-2-methylpropyl)thiazole-4-carboxylic acid]	< 10	–	–
CCOC(=O)c1csc([C@@H](NC(=O)c2csc([C@@H](N)C(C)C)n2)C(C)C)n1 [Compound 11, (S)-2-(1-{[2-(1-Amino-2-methylpropyl)thiazole-4-carbonyl]amino}-(S)-2-methylpropyl)thiazole-4-carboxylic acid ethyl ester]	87	–	–
CC(C)[C@H](N)c1nc(C(=O)N[C@H](c2nc(C(=O)O)cs2)C(C)C)cs1 [Compound 12, (S)-2-(1-{[2-(1-Amino-2-methylpropyl)thiazole-4-carbonyl]amino}-(S)-2-methylpropyl)thiazole-4-carboxylic acid]	23	–	–
CCOC(=O)c1csc([C@@H](NC(=O)c2csc([C@@H](NC(=O)c3csc([C@@H](NC(=O)OC(C)(C)C)C(C)C)n3)C(C)C)n2)C(C)C)n1 [Compound 13, (S)-2-(1-{[2-(1-{[2-(1-tert-Butoxycarbonylamino-2-methylpropyl)thiazole-4-carbonyl]amino}-(S)-2-methylpropyl)thiazole-4-carbonyl]amino}-(S)-2-methylpropyl) thiazole-4-carboxylic acid ethyl ester]	–	91	–
CC(C)[C@H](NC(=O)OC(C)(C)C)c1nc(C(=O)N[C@H](c2nc(C(=O)N[C@H](c3nc(C(=O)O)cs3)C(C)C)cs2)C(C)C)cs1 [Compound 14, (S)-2-(1-{[2-(1-{[2-(1-tert-Butoxycarbonylamino-2-methylpropyl)thiazole-4-carbonyl]amino}-(S)-2-methylpropyl)thiazole-4-carbonyl]amino}-(S)-2-methylpropyl)thiazole-4-carboxylic acid]	–	60	–
CCOC(=O)c1csc([C@@H](NC(=O)c2csc([C@@H](NC(=O)c3csc([C@@H](N)C(C)C)n3)C(C)C)n2)C(C)C)n1 [Compound 15, (S)-2-(1-{[2-(1-{[2-(1-Amino-2-methylpropyl)thiazole-4-carbonyl]amino}-(S)-2-methylpropyl)thiazole-4-carbonyl]amino}-(S)-2-methylpropyl)thiazole-4-carboxylic acid ethyl ester]	–	91	–
CCOC(=O)c1csc([C@@H](NC(=O)c2csc([C@@H](NC(=O)c3csc([C@@H](NC(=O)c4csc([C@@H](NC(=O)OC(C)(C)C)C(C)C)n4)C(C)C)n3)C(C)C)n2)C(C)C)n1 [Compound 18, (S)-2-(1-{[2-(1-{[2-(1-{[2-(1-tert-Butoxycarbonylamino-2-methylpropyl)thiazole-4-carbonyl]amino}-(S)-2-methylpropyl)thiazole-4-carbonyl]amino}-(S)-2-methylpropyl)thiazole-4-carbonyl]amino}-(S)-2-methylpropyl)thiazole-4-carboxylic acid ethyl ester]	–	99	Decrease of cell based inhibitory activity as compared to homolog 13 (human P-gp; 10 μM, transport assays): 1.6 fold
CC(C)[C@@H]1NC(=O)c2csc(n2)[C@H](C(C)C)NC(=O)c2csc(n2)[C@H](C(C)C)NC(=O)c2csc(n2)[C@H](C(C)C)NC(=O)c2csc1n2 [Compound 20, Cyclic Tetramer]	–	–	[125I]-IAAP % Inhibition (P-glycoprotein; tested conc. 10 μM, 4-6 nM [125I]-IAAP, High-Five insect cell membranes): 95%
COc1ccc(CNC(=O)c2csc([C@@H](NC(=O)c3csc([C@@H](NC(=O)OC(C)(C)C)C(C)C)n3)C(C)C)n2)c(OC)c1 [Compound 23, [1-(4-{1-[4-(2,4-Dimethoxybenzylcarbamoyl)thiazol-2-yl]-(S)-2-methylpropylcarbamoyl}thiazol-2-yl)-(S)-2-methylpropyl]carbamic acid tert-butyl ester]	–	95	–
CC(C)[C@@H]1NC(=O)c2c[se]c(n2)[C@H](C(C)C)NC(=O)c2c[se]c(n2)[C@H](C(C)C)NC(=O)c2c[se]c1n2 [QZ59Se-SSS]	–	–	Potency relative to corresponding QZ59Se-RRR isomer (P-gp): four-fold potent
C/C=C/C[C@@H](C)C(=O)[C@H]1C(=O)N[C@@H](C(C)C)C(=O)N(C)CC(=O)N(C)[C@@H](CC(C)C)C(=O)N[C@@H](C(C)C)C(=O)N(C)[C@@H](CC(C)C)C(=O)N[C@@H](C)C(=O)N[C@H](C)C(=O)N(C)[C@@H](CC(C)C)C(=O)N(C)[C@@H](CC(C)C)C(=O)N(C)[C@@H](C(C)C)C(=O)N1C [valspodar]	–	–	Oral bioavailability [1]: very restricted oral bioavailability
